Laboratory results from patent publication US11759460B2, “Method of local antibiotic treatment of infective endocarditis” (priority 2020, dated 2023).
Values after ≈ are worked out from the molar mass of the structure shown. “Also recorded” adds a separate entry of the source. Read-outs that look alike come from different tables or passages of the source.

Assays:
S. aureus biofilms = assay: Single antibiotic treatment of S. aureus biofilms (SGT method); type: cell-based, Staphylococcus aureus; settings: for biofilm bactericidal concentration (BBC): S. aureus biofilms grown 48 h, 24 h treatment, 3 log10 CFU (99.9%) reduction vs control
Source text: (§1) FIGS. 1A and 1B illustrates effects of different antibiotics tested in a dose-dependent manner against bacterial biofilms of different isolates of S. aureus and E. faecalis using only one antibiotic per treatment to screen the effect of the single antibiotics against bacterial biofilms. The graphs show the decadic logarithm of the colony forming units (log10 CFU) of either S. aureus or E. faecalis on the ordinate in relation to the concentration of various antibiotics on the abscissa. Data points belonging to one antibiotic were connected by lines for clarity. In each graph, the dashed line reflects the biofilm bactericidal concentration (BBC), defined as the target of 3 log10 CFU below the control, i.e. the log10 CFU of untreated biofilms (shown at the antibiotic concentration of 0 mg/L), which needs to be undercut to achieve a meaningful suppression of the bacteria in a biofilm of ≥99.9%. The line graphs intersecting this line indicate the antibiotics' concentrations that need to be applied for effective treatment in S. aureus and E. faecalis biofilms. […] For instance, the BBC of rifampicin against S. aureus is ˜4 mg/L; the BBC of dalbavancin is ˜32 mg/L against E. faecalis in biofilms.
FIGS. 1A and 1B illustrate the effect of different antibiotics tested in a dose-depended manner against bacterial biofilms of different bacterial isolates of S. aureus and E. faecalis using only one antibiotic per treatment to screen the effect of the single antibiotics against bacterial biofilms. To obtain the results the inventors used four strains of S. aureus, i.e. three patient isolates and one reference strain, and three strains of E. faecalis, i.e. two isolates from patients as well as one reference strain. In order to test the different antibiotics individually against the bacterial biofilms, the inventors incubated bacterial suspensions of E. faecalis and S. aureus strains in a 96 well microtiter plate for biofilm formation for 48 hours in a humidified modified atmosphere at 37° C. and 5% CO2 without shaking. For the antibiotic treatment of the biofilms the supernatant of each well was removed and the antibiotic treatment with the individual antibiotics to be tested was added to the biofilms and incubated for 24 hours at the same conditions. The number of bacteria in each well after the 24-hour treatment was determined via so called start-growth-time (SGT) method, where the bacterial regrowth of the dispersed bacteria from the biofilms was measured in an incubation chamber of a plate reader over time. Lower bacteria densities lead to a longer regrowth time to reach a certain threshold compared to controls. Each treatment for each strain was performed in three technical replicates. […]

E. faecalis biofilms = assay: Single antibiotic treatment of E. faecalis biofilms (SGT method); type: cell-based, Enterococcus faecalis; settings: for biofilm bactericidal concentration (BBC): E. faecalis biofilms grown 48 h, 24 h treatment, 3 log10 CFU (99.9%) reduction vs control
Source text: as §1
FIGS. 1A and 1B illustrate the effect of different antibiotics tested in a dose-depended manner against bacterial biofilms of different bacterial isolates of S. aureus and E. faecalis using only one antibiotic per treatment to screen the effect of the single antibiotics against bacterial biofilms. To obtain the results the inventors used four strains of S. aureus, i.e. three patient isolates and one reference strain, and three strains of E. faecalis, i.e. two isolates from patients as well as one reference strain. […] The number of bacteria in each well after the 24-hour treatment was determined via so called start-growth-time (SGT) method, where the bacterial regrowth of the dispersed bacteria from the biofilms was measured in an incubation chamber of a plate reader over time. […]

planktonic S. aureus = assay: Minimal inhibitory concentration for planktonic S. aureus; type: cell-based; settings: Staphylococcus aureus
[1] = system: planctonic Enterococcus faecalis; assay: Minimal inhibitory concentration for planktonic Enterococcus faecalis; type: cell-based
[2] = cited from earlier work
[3] = systemic therapy, 'believed to be'

Compound	biofilm bactericidal concentration (BBC) (S. aureus biofilms)	biofilm bactericidal concentration (BBC) (E. faecalis biofilms)	MIC (planktonic S. aureus)	approximate concentration in tissue with systemic therapy [2, 3]	also measured
NCC[C@H](O)C(=O)N[C@@H]1C[C@H](N)[C@@H](O[C@H]2O[C@H](CN)[C@@H](O)[C@H](O)[C@H]2O)[C@H](O)[C@H]1O[C@H]1O[C@H](CO)[C@@H](O)[C@H](N)[C@H]1O [Amikacin, amikacin]	> 512 mg/L				
CN[C@H]1C(=O)N[C@@H]2Cc3ccc(cc3)Oc3cc4cc(c3O[C@@H]3O[C@H](C(=O)O)[C@@H](O)[C@H](O)[C@H]3NC(=O)CCCCCCCCC(C)C)Oc3ccc(cc3Cl)[C@@H](O)[C@@H]3NC(=O)[C@H](NC(=O)[C@@H]4NC(=O)[C@@H](NC2=O)c2cc(cc(O)c2Cl)Oc2cc1ccc2O)c1ccc(O)c(c1)-c1c(O[C@H]2O[C@H](CO)[C@@H](O)[C@H](O)[C@@H]2O)cc(O)cc1[C@@H](C(=O)NCCCN(C)C)NC3=O [dalbavancin]	about 4 mg/L				
CCCCCCCCCC(=O)N[C@@H](Cc1c[nH]c2ccccc12)C(=O)N[C@H](CC(N)=O)C(=O)N[C@@H](CC(=O)O)C(=O)N[C@@H]1C(=O)NCC(=O)N[C@@H](CCCN)C(=O)N[C@@H](CC(=O)O)C(=O)N[C@H](C)C(=O)N[C@@H](CC(=O)O)C(=O)NCC(=O)N[C@H](CO)C(=O)N[C@@H]([C@H](C)CC(=O)O)C(=O)N[C@@H](CC(=O)c2ccccc2N)C(=O)O[C@@H]1C [daptomycin]		about 32 mg/L	~0.25 µg/mL (≈ 0.154 µM)		suppression of bacteria in biofilms (in words) (E. faecalis biofilms; E. faecalis biofilms, single antibiotic): can suppress the bacteria sufficiently; also recorded: highest potency; MIC [1]: ~0.25 µg/mL (≈ 0.154 µM); suppression of bacteria in biofilms (in words) (S. aureus biofilms; S. aureus biofilms, single antibiotic): can suppress the bacteria sufficiently; also recorded: highest potency; approximate concentration in tissue with systemic therapy ([2]; in vivo): ~4 mg/L
C[C@@H]1O[C@@H]1P(=O)(O)O [phosphomycin]		> 1024 mg/L			
CO[C@H]1/C=C/O[C@@]2(C)Oc3c(C)c(O)c4c(O)c(c(/C=N/N5CCN(C)CC5)c(O)c4c3C2=O)NC(=O)/C(C)=C\C=C\[C@H](C)[C@H](O)[C@@H](C)[C@@H](O)[C@@H](C)[C@H](OC(C)=O)[C@@H]1C [rifampicin]	~4 mg/L		~0.004 µg/mL (≈ 0.00486 µM)	~1 mg/L	
CN[C@H](CC(C)C)C(=O)N[C@H]1C(=O)N[C@@H](CC(N)=O)C(=O)N[C@H]2C(=O)N[C@H]3C(=O)N[C@H](C(=O)N[C@H](C(=O)O)c4cc(O)cc(O)c4-c4cc3ccc4O)[C@H](O)c3ccc(c(Cl)c3)Oc3cc2cc(c3O[C@@H]2O[C@H](CO)[C@@H](O)[C@H](O)[C@H]2O[C@H]2C[C@](C)(N)[C@H](O)[C@H](C)O2)Oc2ccc(cc2Cl)[C@H]1O [vancomycin]				~1 mg/L	
